Earlier results, collected in patent publication US8815815B2, “Methods for producing phytoextracts from vegetation waters and olive oil pomaces and compositions obtained thereby” (Phenofarm S.r.l., priority 2011, dated 2014).
In brackets after ≈: the same amount, converted by molar mass.

What was measured:
neutrophils = conditions: in vitro
[1] = tested on: P-388 murine leukaemia cells
[2] = tested on: PC12 neuronal cell culture; conditions: 1-methyl-4-phenylpyridine (MPP+) ion

For C[C@@H]1O[C@@H](O[C@@H]2[C@@H](O)[C@H](OCCc3ccc(O)c(O)c3)O[C@H](CO)[C@H]2OC(=O)/C=C/c2ccc(O)c(O)c2)[C@H](O)[C@H](O)[C@H]1O [verbascoside], the “chemotactic activity of neutrophils” value (neutrophils) is given as “increasing the chemotactic activity of neutrophils”, the ED50 cytotoxic action [1] is given as 26 µg/mL (≈ 41.6 µM) and the “protection activity against neurotoxicity induced by MPP+” value [2] is given as “protection activity against neurotoxicity”.

In the case of C[C@@H]1O[C@@H](O[C@@H]2[C@@H](O)[C@H](OCCc3ccc(O)c(O)c3)O[C@H](COC(=O)/C=C/c3ccc(O)c(O)c3)[C@H]2O)[C@H](O)[C@H](O)[C@H]1O [isoacteoside], the ED50 cytotoxic action [1] is given as 10 µg/mL (≈ 16 µM).
